Data published in the supplement of paper PMC13380429.

Columns and labels:
Conditions in all cases: 72 h
Calu-3 [1] = test: drug sensitivity score (DSS) for viability; higher = more toxic; extreme values may be limits of the assay
Caco-2 [2] = test: as above
Vero E6 [3] = test: as above
HepG2 [4] = test: as above
U2OS [5] = test: as above
Calu-3 [6] = test: relative viability EC50 (midpoint between 100% and the lowest measured viability); higher = less toxic
Caco-2 [7] = test: as above
Vero E6 [8] = test: as above
HepG2 [9] = test: as above
U2OS [10] = test: as above
Calu-3 [11] = test: cell viability relative to DMSO; higher = less toxic
Caco-2 [12] = test: as above
Vero E6 [13] = test: as above
HepG2 [14] = test: as above
U2OS [15] = test: as above

Compound | drug sensitivity score (Calu-3 [1]) | drug sensitivity score (Caco-2 [2]) | drug sensitivity score (Vero E6 [3]) | drug sensitivity score (HepG2 [4]) | drug sensitivity score (U2OS [5]) | relative viability EC50 (Calu-3 [6]) [µM] | relative viability EC50 (Caco-2 [7]) [µM] | relative viability EC50 (Vero E6 [8]) [µM] | relative viability EC50 (HepG2 [9]) [µM] | relative viability EC50 (U2OS [10]) [µM] | cell viability (Calu-3 [11]; 1 nM) [%] | cell viability (Calu-3 [11]; 10 nM) [%] | cell viability (Calu-3 [11]; 100 nM) [%] | cell viability (Calu-3 [11]; 1000 nM) [%] | cell viability (Calu-3 [11]; 10000 nM) [%] | cell viability (Caco-2 [12]; 1 nM) [%] | cell viability (Caco-2 [12]; 10 nM) [%] | cell viability (Caco-2 [12]; 100 nM) [%] | cell viability (Caco-2 [12]; 1000 nM) [%] | cell viability (Caco-2 [12]; 10000 nM) [%] | cell viability (Vero E6 [13]; 1 nM) [%] | cell viability (Vero E6 [13]; 10 nM) [%] | cell viability (Vero E6 [13]; 100 nM) [%] | cell viability (Vero E6 [13]; 1000 nM) [%] | cell viability (Vero E6 [13]; 10000 nM) [%] | cell viability (HepG2 [14]; 1 nM) [%] | cell viability (HepG2 [14]; 10 nM) [%] | cell viability (HepG2 [14]; 100 nM) [%] | cell viability (HepG2 [14]; 1000 nM) [%] | cell viability (HepG2 [14]; 10000 nM) [%] | cell viability (U2OS [15]; 1 nM) [%] | cell viability (U2OS [15]; 10 nM) [%] | cell viability (U2OS [15]; 100 nM) [%] | cell viability (U2OS [15]; 1000 nM) [%] | cell viability (U2OS [15]; 10000 nM) [%]
c1ccc2sc(SN3CCOCC3)nc2c1 [N-oxydiethylenebenzothiazole-2-sulfenamide] | 0 | 0 | 0 | 0 | 0 | > 10 | > 10 | > 10 | > 10 | > 10 | 104 | 101 | 97.4 | 83.3 | 110 | 86.7 | 92.6 | 92.5 | 92.5 | 93.8 | 97 | 94.5 | 99.6 | 104 | 112 | 101 | 97.1 | 98.9 | 115 | 111 | 96.9 | 105 | 94.1 | 99.1 | 102
COc1ncc(-c2ccc3nccc(-c4ccnnc4)c3c2)cc1NS(=O)(=O)c1ccc(F)cc1F | 32.5 | 29.8 | 24.1 | 22.2 | 26.2 | 0.0044 | 0.0081 | 0.0351 | 0.0297 | 0.0484 | 79.4 | 47.4 | 22.2 | 19.5 | 17.4 | 84.8 | 60.2 | 19 | 25.3 | 28.8 | 90.2 | 80.1 | 38.9 | 22.6 | 15.1 | 98.8 | 77.2 | 46.3 | 25 | 29.2 | 91 | 80.3 | 34.2 | 13.9 | 0.9
O=C(Cn1ccnc1[N+](=O)[O-])NCCO [etanidazole] | 0 | 0 | 0 | 0 | 0 | > 10 | > 10 | > 10 | > 10 | > 10 | 98.8 | 92.4 | 94 | 98.1 | 107 | 100 | 94.1 | 95.9 | 91.5 | 92.7 | 103 | 104 | 106 | 101 | 97.7 | 98.7 | 106 | 92.3 | 101 | 88.8 | 101 | 97.1 | 102 | 99.1 | 102
N#C/C(=C1/SCC(c2ccccc2Cl)S1)n1ccnc1 (stereo not given) [lanoconazole] | 0 | 0 | 0 | 0.8 | 0 | > 10 | > 10 | > 10 | > 10 | > 10 | 96.9 | 103 | 103 | 108 | 86.6 | 96.6 | 106 | 99.7 | 101 | 102 | 100 | 99.1 | 95.2 | 92.5 | 94.9 | 93.3 | 95.5 | 99.9 | 97.6 | 81.6 | 99.1 | 99.9 | 97.4 | 96.8 | 89.8
CC(=O)N[C@@H](CCC(N)=O)C(=O)O [aceglutamide] | 0 | 3.5 | 0.3 | 0 | 0 | > 10 | > 10 | > 10 | > 10 | > 10 | 101 | 89.8 | 101 | 110 | 103 | 95.5 | 103 | 84.5 | 82.4 | 83 | 98.3 | 104 | 99.8 | 99.9 | 83.7 | 90.7 | 89.7 | 104 | 92.5 | 86.4 | 106 | 103 | 99.2 | 98.8 | 98.5
CCN(CC)CCCCC1CCN(CC(=O)N2c3ccccc3C(=O)Nc3cccnc32)CC1 [AQ-RA741] | 0 | 0 | 0 | 0 | 0 | > 10 | > 10 | > 10 | > 10 | > 10 | 105 | 94.7 | 108 | 109 | 96.4 | 101 | 90.9 | 98.2 | 86.4 | 97.1 | 102 | 106 | 96.7 | 97.8 | 95.9 | 100 | 102 | 102 | 101 | 90.1 | 97.1 | 96.3 | 105 | 98.6 | 104
Nc1nc(=O)n([C@H]2C[C@H](O)[C@@H](CO)O2)cc1Cl [cytochlor] | 0.4 | 0.5 | 0 | 1.7 | 0 | > 10 | > 10 | > 10 | > 10 | > 10 | 91.6 | 98.1 | 102 | 95.7 | 86.3 | 90 | 97.6 | 77.4 | 101 | 84.6 | 100 | 98.5 | 98.8 | 98.3 | 98.7 | 114 | 105 | 113 | 93.5 | 76.5 | 97.7 | 100 | 94.4 | 100 | 92.5
